Measured values reported in US8658604B2, “Template-fixed beta-hairpin peptidomimetics with protease inhibitory activity” (Polyphor Ltd, priority 2005, dated 2014).
Where two headings read alike, the source gives them in different places. Where a SMILES comes first, the peptide text is derived from it. Bridges are numbered along the chain shown (N, C = ends). [ ]: non-standard residue; d: D form. Nle = CCCC[C@H](N)C(=O)O; Abu = CC[C@H](N)C(=O)O

Columns and labels:
[1] = biological target: T1, Elastase from human neutrophils (Homo sapiens, UniProt P08246); experiment: Enzymatic assay, elastase
T1 sequence (P08246 30-267): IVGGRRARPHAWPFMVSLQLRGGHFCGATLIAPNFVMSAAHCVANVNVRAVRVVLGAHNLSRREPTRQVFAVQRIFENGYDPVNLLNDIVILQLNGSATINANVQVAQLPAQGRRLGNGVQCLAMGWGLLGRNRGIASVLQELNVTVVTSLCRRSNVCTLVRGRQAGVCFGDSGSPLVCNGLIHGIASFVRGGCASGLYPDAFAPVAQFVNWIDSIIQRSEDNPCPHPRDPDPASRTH

[2] = biological target: Trypsin, from human pancreas (Homo sapiens, UniProt P07477); experiment: Enzymatic assay, trypsin; conditions: at 100 μM
[3] = biological target: Urokinase from human urine (Homo sapiens, UniProt P00749); experiment: Enzymatic assay, urokinase
[4] = biological target: T2, CathepsinG, from human neutrophils (Homo sapiens, UniProt P08311); experiment: Enzymatic assay, cathepsin G; conditions: for IC50: Cathepsin G IC50
T2 sequence (P08311 21-244): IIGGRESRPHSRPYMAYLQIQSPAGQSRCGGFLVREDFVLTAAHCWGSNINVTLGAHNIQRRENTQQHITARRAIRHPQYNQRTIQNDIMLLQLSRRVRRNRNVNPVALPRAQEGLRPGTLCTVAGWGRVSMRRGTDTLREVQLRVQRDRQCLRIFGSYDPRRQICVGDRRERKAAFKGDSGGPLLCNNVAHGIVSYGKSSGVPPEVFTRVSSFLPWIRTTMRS

[5] = biological target: Thrombin, from Human Plasma (Homo sapiens, UniProt P00734); experiment: Enzymatic assay, thrombin
[6] = biological target: Coagulation Factor Xa, from uman plasma (Homo sapiens, UniProt P00742); experiment: Enzymatic assay, coagulation factor Xa
[7] = tested on: Tryptase, from human lung; experiment: Enzymatic assay, tryptase; conditions: at 100 μM
HELA cells (Acc57) = experiment: Cytotoxicity assay (MTT reduction), HELA cells; assay type: cell-based
Method: The cytotoxicity of the peptides to HELA cells (Acc57) and COS-7 cells (CRL-1651) was determined using the MTT reduction assay [see ref. 2 and 3, below]. Briefly the method was as follows: HELA cells and COS-7 cells were seeded at 7.0×10^3 and, respectively, 4.5×10^3 cells per well and grown in 96-well microtiter plates for 24 hours at 37° C. at 5% CO2. At this point, time zero (Tz) was determined by MTT reduction (see below). The supernatant of the remaining wells was discarded, and fresh medium and the peptides in serial dilutions of 12.5, 25 and 50 μM were pipetted into the wells. Each peptide concentration was assayed in triplicate. Incubation of the cells was continued for 48 hours at 37° C. at 5% CO2. Wells were then washed once with phosphate buffered saline (PBS) and subsequently 100 μl MTT reagent (0.5 mg/ml in medium RPMI1640 and, respectively, DMEM) were added to the wells. This was incubated at 37° C. for 2 hours and subsequently the medium was aspirated and 100 μl isopropanol were added to each well. The absorbance at 595 nm of the solubilized product was measured (OD595peptide). For each concentration averages were calculated from triplicates. The percentage of growth was calculated as follows: (OD595peptide-OD595Tz-OD595Empty well)/(OD595Tz-OD595Empty well)×100% and was plotted for each peptide concentration.
The LC 50 values (Lethal Concentration, defined as the concentration that kills 50% of the cells) were determined for each peptide by using the trend line function of EXCEL (Microsoft Office 2000) for the concentrations (50, 25, 12.5 and 0 μM), the corresponding growth percentages and the value −50, (=TREND(C50:C0,%50:%0,−50)).
The GI 50 (Growth Inhibition) concentrations were calculated for each peptide by using a trend line function for the concentrations (50, 25, 12.5 and 0 μg/ml), the corresponding percentages and the value 50, (=TREND (C50:C0,%50:%0,50).

Chymase, from human skin = biological target: T3, Chymase, from human skin (Homo sapiens, UniProt P23946); experiment: Enzymatic assay, chymase
T3 sequence (P23946 22-247): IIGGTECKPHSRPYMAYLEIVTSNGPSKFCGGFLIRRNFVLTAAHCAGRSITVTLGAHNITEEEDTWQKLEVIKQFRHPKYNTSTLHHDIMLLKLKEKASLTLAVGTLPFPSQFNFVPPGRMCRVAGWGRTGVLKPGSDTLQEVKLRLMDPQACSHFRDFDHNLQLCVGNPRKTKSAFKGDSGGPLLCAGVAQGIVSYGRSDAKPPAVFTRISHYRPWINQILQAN

[8] = biological target: Chymotrypsin, from human pancreas (Homo sapiens, UniProt P17538); experiment: Enzymatic assay, chymotrypsin
Chain of Chymotrypsin, from human pancreas (P17538 19-263): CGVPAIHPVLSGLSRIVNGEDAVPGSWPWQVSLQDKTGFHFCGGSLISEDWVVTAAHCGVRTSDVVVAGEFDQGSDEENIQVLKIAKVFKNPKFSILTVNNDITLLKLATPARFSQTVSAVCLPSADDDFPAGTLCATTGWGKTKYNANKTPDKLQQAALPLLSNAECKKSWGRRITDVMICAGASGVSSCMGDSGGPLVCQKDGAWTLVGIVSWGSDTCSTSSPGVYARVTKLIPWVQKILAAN

Chain of Coagulation Factor Xa, from uman plasma (P00742 235-488 limits assumed): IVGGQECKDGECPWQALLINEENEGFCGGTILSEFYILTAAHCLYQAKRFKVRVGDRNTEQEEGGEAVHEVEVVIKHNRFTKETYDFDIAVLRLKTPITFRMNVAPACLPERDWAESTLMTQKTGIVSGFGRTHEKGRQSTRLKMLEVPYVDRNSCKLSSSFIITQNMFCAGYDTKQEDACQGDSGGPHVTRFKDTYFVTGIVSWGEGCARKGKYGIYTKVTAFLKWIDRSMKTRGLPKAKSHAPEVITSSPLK
Chain of Coagulation Factor Xa, from uman plasma (P00742 41-179 limits assumed): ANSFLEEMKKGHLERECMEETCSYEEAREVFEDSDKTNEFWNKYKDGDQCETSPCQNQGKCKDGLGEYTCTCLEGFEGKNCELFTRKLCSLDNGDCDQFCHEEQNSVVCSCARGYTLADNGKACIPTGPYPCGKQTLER

IC50 ([1]; read-out: Elastase IC50) [µM]	IC50 ([8]; read-out: Chymotrypsin IC50) [µM]	Compound	IC50 ([1]; Elastase IC50) [µM]	Trypsin at 100 μM % [2] [%]	Urokinase at 100 μM % [3] [%]	IC50 [4] [µM]	Thrombin at 100 μM % [5] [%]	FXa at 100 μM % [6] [%]	Tryptase at 100 μM % [7] [%]	Cytotoxicity LC50/GI50 Hela cells (HELA cells (Acc57); Hela cells) [µM]	Chymase at 100 μM % (Chymase, from human skin) [%]	IC50 [8] [µM]	Cathepsin G at 100 μM % ([4]; at 100 μM (stated in cell instead of IC50)) [at 100%]	Cathepsin G at 100 μM % ([4]; at 100 μM) [at 100%]	Tryptase At 100 μM % [7] [%]	Chymotrypsin at 100 μM % ([8]; at 100 μM) [%]	Cytotoxicity LC50/GI50 Hela cells (HELA cells (Acc57)) [µM]
		CCCC[C@@H]1NC(=O)[C@@H]2CCCN2C(=O)[C@H]2CCCN2C(=O)[C@H](Cc2ccc(O)cc2)NC(=O)[C@@H]2CSSC[C@H](NC1=O)C(=O)N[C@@H]([C@@H](C)O)C(=O)N[C@@H](C)C(=O)N[C@@H](CO)C(=O)N[C@@H]([C@@H](C)CC)C(=O)N1CCC[C@H]1C(=O)N1CC(NC(=O)c3ccccc3)C[C@H]1C(=O)N[C@@H](CCC(N)=O)C(=O)N2 (single isomer, unassigned) [Ex. 88]	0.018	6.4	96	> 100	0.2	3	0.6	73	0	4.31					
		CCCC[C@@H]1NC(=O)[C@@H]2CCCN2C(=O)[C@H]2CCCN2C(=O)[C@H](Cc2ccc(O)cc2)NC(=O)[C@@H]2CSSC[C@H](NC1=O)C(=O)N[C@@H]([C@@H](C)O)C(=O)N[C@@H](C)C(=O)N[C@@H](CO)C(=O)N[C@@H](CCC(C)C)C(=O)N1CCC[C@H]1C(=O)N1CCC[C@H]1C(=O)N[C@@H](CCC(N)=O)C(=O)N2 [Ex. 83] (HELM PEPTIDE1{[Nle].C.T.A.S.[CC(C)CC[C@H](N[*:1])C(=O)[*:2]].P.P.Q.C.Y.[dP].P}$PEPTIDE1,PEPTIDE1,2:R3-10:R3|PEPTIDE1,PEPTIDE1,1:R1-13:R2$$$V2.0)	0.043							12		100					
		CCCC[C@@H]1NC(=O)[C@@H]2CCCN2C(=O)[C@H]2CCCN2C(=O)[C@H](Cc2ccc(O)cc2)NC(=O)[C@@H]2CSSC[C@H](NC1=O)C(=O)N[C@@H]([C@@H](C)O)C(=O)N[C@@H](C)C(=O)N[C@@H](CO)C(=O)N[C@@H](C1CCCCC1)C(=O)N1CCC[C@H]1C(=O)N1CCC[C@H]1C(=O)N[C@@H](CCC(N)=O)C(=O)N2 [Ex. 84] (HELM PEPTIDE1{[Nle].C.T.A.S.[O=C([C@@H](N[*:1])C1CCCCC1)[*:2]].P.P.Q.C.Y.[dP].P}$PEPTIDE1,PEPTIDE1,2:R3-10:R3|PEPTIDE1,PEPTIDE1,1:R1-13:R2$$$V2.0)	0.018	10.8	10.4	20.2	20.6	13.3	4.2	9	0	17.1					
		CCCC[C@@H]1NC(=O)[C@@H]2CCCN2C(=O)[C@H]2CCCN2C(=O)[C@H](Cc2ccccc2)NC(=O)[C@@H]2CSSC[C@H](NC1=O)C(=O)N[C@@H]([C@@H](C)O)C(=O)N[C@@H](C)C(=O)N[C@@H](CO)C(=O)N[C@@H]([C@@H](C)CC)C(=O)N1CCC[C@H]1C(=O)N1CCC[C@H]1C(=O)N[C@@H](CCC(N)=O)C(=O)N2 [Ex. 90] (HELM PEPTIDE1{[Nle].C.T.A.S.I.P.P.Q.C.F.[dP].P}$PEPTIDE1,PEPTIDE1,2:R3-10:R3|PEPTIDE1,PEPTIDE1,1:R1-13:R2$$$V2.0)	0.021	5.2	3.5	67	0	5.5	5	96	0	33.1					
		CCCC[C@@H]1NC(=O)[C@@H]2CCCN2C(=O)[C@H]2CCCN2C(=O)[C@H](CCC(N)=O)NC(=O)[C@@H]2CSSC[C@H](NC1=O)C(=O)N[C@@H]([C@@H](C)O)C(=O)N[C@@H](C)C(=O)N[C@@H](CO)C(=O)N[C@@H]([C@@H](C)CC)C(=O)N1CCC[C@H]1C(=O)N1CCC[C@H]1C(=O)N[C@@H](CCC(N)=O)C(=O)N2 [Ex. 91] (HELM PEPTIDE1{[Nle].C.T.A.S.I.P.P.Q.C.Q.[dP].P}$PEPTIDE1,PEPTIDE1,2:R3-10:R3|PEPTIDE1,PEPTIDE1,1:R1-13:R2$$$V2.0)	0.028	0			13.5	19.4		79	4.7	48.1	45				
		CCCC[C@@H]1NC(=O)[C@@H]2CCCN2C(=O)[C@@H](CC(=O)O)NC(=O)[C@H](Cc2ccc(O)cc2)NC(=O)[C@@H]2CSSC[C@H](NC1=O)C(=O)N[C@@H]([C@@H](C)O)C(=O)N[C@@H](C)C(=O)N[C@@H](CO)C(=O)N[C@@H]([C@@H](C)CC)C(=O)N1CCC[C@H]1C(=O)N1CCC[C@H]1C(=O)N[C@@H](CCC(N)=O)C(=O)N2 [Ex. 115] (HELM PEPTIDE1{[Nle].C.T.A.S.I.P.P.Q.C.Y.[dD].P}$PEPTIDE1,PEPTIDE1,2:R3-10:R3|PEPTIDE1,PEPTIDE1,1:R1-13:R2$$$V2.0)	0.038							51		27.8					
		CCCC[C@@H]1NC(=O)[C@H](C(C)C)NC(=O)[C@H]2CCCN2C(=O)[C@H](Cc2ccc(O)cc2)NC(=O)[C@@H]2CSSC[C@H](NC1=O)C(=O)N[C@@H]([C@@H](C)O)C(=O)N[C@@H](C)C(=O)N[C@@H](CO)C(=O)N[C@@H]([C@@H](C)CC)C(=O)N1CCC[C@H]1C(=O)N1CCC[C@H]1C(=O)N[C@@H](CCC(N)=O)C(=O)N2 [Ex. 125] (HELM PEPTIDE1{[Nle].C.T.A.S.I.P.P.Q.C.Y.[dP].V}$PEPTIDE1,PEPTIDE1,2:R3-10:R3|PEPTIDE1,PEPTIDE1,1:R1-13:R2$$$V2.0)	0.015	28.3		18.3	0	0		37	4.8	> 20					
		CCCC[C@@H]1NC(=O)[C@@H]2CCCN2C(=O)[C@H]2CCCN2C(=O)[C@H](Cc2ccc(O)cc2)NC(=O)[C@@H]2CSSC[C@H](NC1=O)C(=O)N[C@@H]([C@@H](C)O)C(=O)N[C@@H](C)C(=O)N[C@@H](CO)C(=O)N[C@@H](CC1CCCCC1)C(=O)N1CCC[C@H]1C(=O)N1CCC[C@H]1C(=O)N[C@@H](CCC(N)=O)C(=O)N2 [Ex. 141] (HELM PEPTIDE1{[Nle].C.T.A.S.[Cha].P.P.Q.C.Y.[dP].P}$PEPTIDE1,PEPTIDE1,2:R3-10:R3|PEPTIDE1,PEPTIDE1,1:R1-13:R2$$$V2.0)		0			0	15.3		56	0			63.4	44.5	72.9	
0.037	107	Ex. 87: β-hairpin peptidomimetic of Table 1, template DPro-Pro (cyclo([Nle]C[Abu]ASIPPQCY); disulfide 2-10; also: DPro-Pro template, linkage not given here)															65
